One experiment relates to HCT 116 cells. The experiment in a line: cells. The following applies: Homo sapiens, HCT-116, 48 h; for GI50: read-out: HCT116 GI50; for CC50: read-out: HCT116 LC50.
Experiment [1] relates to MDAMB231/U251. The experiment in a line: cells. To be noted: 48 h, read-out: MDAMB231/U251 GI50.
For a further experiment, the system named is NCIH 460 cells. The experiment in a line: cells. To be noted: Homo sapiens, NCI-H460, 48 h; for GI50: read-out: NCIH460 GI50; for CC50: read-out: NCIH460 LC50.
Experiment [2] has as its system NCIH460, HCT116, MDAMB231/U251. The experiment in a line: Anti-cancer screen, mean GI50 over the cell lines. In kind it is cell-based. To be noted: mean over the three cell lines; no unit in table.
For experiment [3], the system named is HDAC activity (Mouse Liver Extract). The experiment in a line: Histone Deacetylase (HDAC) Inhibition Assay using Boc-Lys (Ac)-AMC Substrate. In kind it is biochemical. To be noted: mouse liver enzyme; for HDAC Inhibition 1 μM: inhibitor at 1 μM; for HDAC Inhibition 1 μM / HDAC Inhibition 10 μM: in % (unit assumed); for HDAC Inhibition 10 μM: inhibitor at 10 μM. As to the method: Histone Deacetylase (HDAC) Inhibition Assay using Boc-Lys (Ac)-AMC Substrate: Inhibition of HDAC has been implicated to modulate transcription and to induce apoptosis or differentiation in cancer cells. The fluorometric assay provides a fast and fluorescence based method that eliminates radioactivity, extractions or chromatography, as used in traditional assays. The assay based on two steps. First, the HDAC fluorometric substrate, which comprises an acetylated lysine side chain, is incubated with a sample containing HDAC activity (Mouse Liver Extract). Deacetylation of the substrate sensitizes the substrate, in the second step; treatment with the Trypsin stop solution produces a fluorophore that can be easily analyzed using fluorescence plate reader.
Assay was done in 96 well black microplate and total volume of the assay is 100 ul. Mouse liver enzyme is diluted 1:6 with HDAC buffer. Enzyme cocktail made of 10 ul of diluted enzyme and 30 ul of HDAC buffer. 40 ul of enzyme cocktail dispensed into each well. 10 ul of different concentrations of inhibitor added in to each well, except enzyme control well. Preincubated the plate at 30° C. for 5 minutes. The HDAC reaction is started by adding 50 ul of HDAC substrate (Boc-Lys (Ac)-AMC Substrate) solution. Incubated the plate at 30° C. for 30 minutes. Adding 100 ul of Trypsin stop solution stops the reaction. The plate is incubated again at 30° C. for 20-30 minutes. The release of AMC is monitored by measuring the fluorescence at excitation wavelength of 365 or 360 nm and emission wavelength of 440 or 460 nm. Buffer and substrate alone kept for blank subtraction. (Dennis Wegener et al, Anal. Biochem, 321, 2003, 202-208).

Experiment [4] concerns MDAMB231/U251. The experiment in a line: cells. To be noted: 48 h, read-out: MDAMB231/U251 LC50.

6 compounds from patent publication US8263044B2, “Stilbene like compounds as novel HDAC inhibitors” (Orchid Research Laboratories Limited, priority 2005, dated 2012) can be followed below.

The IC50 is the point on the concentration scale where inhibition reaches its midpoint. The low end stands for greater potency, the high end for weaker potency.

Where only a bound is given, the exact number is not on record here.

Take `CSc1ccc(/C=C(\C(=O)NCCCCCC(=O)Nc2ncc([N+](=O)[O-])s2)c2ccc(F)cc2)cc1` [Example 17, (2Z)-3-(4-Thiomethylphenyl)-2-(4-fluorophenyl)-N-[6-(5-nitro-2-thiazoleamine)-6-oxohexyl]acrylamide]: the GI50 in the experiment on HCT 116 cells was determined as 0.03 µM; with MDAMB231/U251 [1], 0.71 µM; in the experiment on NCIH 460 cells, 0.25 µM; in experiment [2], 0.3 µM. The CC50 in the experiment with HCT 116 cells, in the experiment on NCIH 460 cells and with MDAMB231/U251 [4] was greater than 100 µM in each case. Besides, the “HDAC Inhibition 1 μM” value in experiment [3] was found to be 0.7. For the same compound, the “HDAC Inhibition 10 μM” value in experiment [3] stood at 2.3.
In the case of `CON(C)C(=O)CCCCCNC(=O)/C(=C\c1ccc(SC)cc1)c1ccc(F)cc1` [Example 18, (2Z)-3-(4-Thiomethylphenyl)-2-(4-fluorophenyl)-N-[6-(N,O dimethylamine)-6-oxohexyl]acrylamide], the GI50 in the experiment with HCT 116 cells stood at 55 µM; with MDAMB231/U251 [1], 0.8 µM; with NCIH 460 cells, 0.5 µM; in experiment [2], 18.8 µM. The CC50 in the experiment on HCT 116 cells, in the experiment with NCIH 460 cells and with MDAMB231/U251 [4] was greater than 100 µM each time. In addition, in experiment [3], the “HDAC Inhibition 1 μM” value was determined as 2.26. Also, the “HDAC Inhibition 10 μM” value in experiment [3] turned out to be 0.89.
Take `CSc1ccc(/C=C(\C(=O)NCCCCCC(=O)Nc2nc3cc(C)ccc3s2)c2ccc(F)cc2)cc1` [Example 19, (2Z)-3-(4-Thiomethylphenyl)-2-(4-fluorophenyl)-N-[6-(5-methyl-2-benzothiazoleamine)-6-oxohexyl]acrylamide]: the GI50 in the experiment with HCT 116 cells was greater than 100 µM; in the experiment with MDAMB231/U251 [1], 5.8 µM; with NCIH 460 cells, 8 µM; in experiment [2], 6.9 µM. For the same compound, the CC50 in the experiment on HCT 116 cells, in the experiment with NCIH 460 cells and in the experiment with MDAMB231/U251 [4] was greater than 100 µM each time. Besides, the “HDAC Inhibition 1 μM” value in experiment [3] is reported as −22.2. In addition, the “HDAC Inhibition 10 μM” value in experiment [3] is listed as 10.2.
As for `CSc1ccc(/C=C(\C(=O)NCCCCCC(=O)Nc2nccs2)c2ccc(F)cc2)cc1` [Example 20, (2Z)-3-(4-Thiomethylphenyl)-2-(4-fluorophenyl)-N-[6-(2-thiazoleamine)-6-oxohexyl]acrylamide], the GI50 in the experiment on HCT 116 cells is greater than 100 µM; with MDAMB231/U251 [1] it was 3 µM; in the experiment on NCIH 460 cells it was 1 µM; in experiment [2] it was 2 µM. The CC50 with HCT 116 cells, in the experiment with NCIH 460 cells and with MDAMB231/U251 [4] was greater than 100 µM throughout. For the same compound, the “HDAC Inhibition 10 μM” value in experiment [3] is on record as 5.57.
`Cc1ncsc1/C=C(\C(=O)NCCCCCC(=O)NO)c1ccc(Br)cc1` [Example 23, (2Z)-3-(4-Methylthiazol-5-yl)-2-(4-bromophenyl)-N-[6-(hydroxyamino)-6-oxohexyl]acrylamide]: the GI50 with HCT 116 cells stood at 6 µM; with MDAMB231/U251 [1], 1 µM; in the experiment with NCIH 460 cells, 0.8 µM; in experiment [2] it was 2.6 µM. The values for the CC50 with HCT 116 cells, with NCIH 460 cells and in the experiment with MDAMB231/U251 [4] were greater than 100 µM, greater than 100 µM and 90 µM, respectively. Moreover, the “HDAC Inhibition 1 μM” value in experiment [3] is 42.7. In addition, in experiment [3], the “HDAC Inhibition 10 μM” value worked out at 81.07. In experiment [3], this compound displayed an IC50 of 1.8 µM.
`O=C(CCCCCNC(=O)/C(=C\c1ccc(F)c(C(F)(F)F)c1)c1ccc([N+](=O)[O-])cc1)NO` [Example 24, (2Z)-3-(4-Fluoro-3-trifluoromethylphenyl)-2-(4-nitrophenyl)-N-[6-(hydroxyamino)-6-oxohexyl]acrylamide]: the GI50 with HCT 116 cells was determined as 5 µM; in the experiment on MDAMB231/U251 [1], 0.3 µM; in the experiment on NCIH 460 cells, 16 µM; in experiment [2], 7.21 µM. Besides, the figures for the CC50 in the experiment on HCT 116 cells, in the experiment on NCIH 460 cells and in the experiment with MDAMB231/U251 [4] were greater than 100 µM, 82 µM and 75 µM, respectively. The “HDAC Inhibition 1 μM” value in experiment [3] amounted to 46.1. Further, the “HDAC Inhibition 10 μM” value in experiment [3] is listed as 99.5.
